In patent US20220047532A1, “AMPA RECEPTOR ANTAGONISTS SPECIFIC FOR CALCIUM PERMEABLE AMPA RECEPTORS AND METHODS OF TREATMENT THEREWITH” (priority 2018, published 2022):
“Also recorded” adds a separate entry of the source. Read-outs that look alike come from different tables or passages of the source.

Experiments:
[1] = system: MeCP2 S421 phosphorylation; test: KA-induced MeCP2 S421 phosphorylation, immunoblot, hippocampal E18+10DIV cultures; format: cell-based, rat; settings: H
Experimental: (§1) Nuclei were isolated as previously described (81). […] Blots were incubated with the following primary antibodies: MeCP2 (S421) (1:1000) and total-MeCP2 (1:1000, kind gifts from Dr. Michael Greenberg, Harvard Medical School), phospho-CaMKII (T286) (1:250, Cell Signaling), pan-CaMKII (1:250, Cell Signaling), ([…] (1:5000, Sigma), and lamin A/C (1:1000, Cell Signaling).

[2] = system: MeCP2 S421 phosphorylation; test: KA-induced MeCP2 S421 phosphorylation, immunoblot, cortical E18+10DIV cultures; format: cell-based, rat; settings: Ctx
Experimental: as §1

[3] = system: CaMKII T286 phosphorylation; format: cell-based
Experimental: as §1

[4] = system: MeCP2 S421 phosphorylation; test: KCl-induced MeCP2 S421 phosphorylation, immunoblot, hippocampal cultures; format: cell-based, rat
Experimental: as §1

[5] = system: MeCP2 S421 phosphorylation; test: KCl-induced MeCP2 S421 phosphorylation, immunoblot, cortical cultures; format: cell-based, rat
Experimental: as §1

[6] = system: MeCP2 S421 phosphorylation; test: In vivo hypoxic seizure (HS)-induced MeCP2 S421 phosphorylation in P10 rats; set-up: species or system rat; settings: for MeCP2 S421 phosphorylation 3 hrs post-HS: P10 rats, normalized to mean C+V control (100±8%), HS+V 157±11%, 20 mg/kg NBQX, 20 mg/kg IEM-1460, nimodipine 10 mg·kg, i.p.; for Baseline MeCP2 phosphorylation in control rats: control rats without HS
Experimental: as §1

[7] = system: E18+10DIV cultured hippocampal neurons; test: Fura-2 ratiometric Ca2+ imaging of KA-induced Ca2+ influx, hippocampal cultures; format: cell-based, rat; settings: hippocampus
Experimental: (§2) Ratiometric Ca^2+ imaging was performed on E17/18+10 DIV hippocampal and cortical cultures, plated at 1×10^5 cells/well in 24 well plates. […] After 10 min bathed in 100 μM D-APV (Tocris), cells were stimulated using fast (<2 min) bath application of 30 μM kainate (KA). […] Changes in Ca^2+ influx were assessed by change in 340/380 nm excitation ratio from baseline in individual somas (using regions of interests) in NisElements software (see Supp. Methods).

[8] = system: E18+10DIV cultured cortical neurons; test: Fura-2 ratiometric Ca2+ imaging of KA-induced Ca2+ influx, cortical cultures; format: cell-based, rat; settings: cortex
Experimental: as §2

PTZ-induced seizures = settings: in vivo; cited from earlier work
CaMKII phosphorylation = test: In vivo hypoxic seizure-induced CaMKII phosphorylation; settings: HS model
Experimental: as §1

CDKL5 R59X mouse = test: Behaviour of CDKL5 R59X mice after acute in vivo treatment
GluA2-lacking AMPAR = test: AMPAR eEPSC currents in CDKL5 R59X mouse model; format: cell-based
[9] = system: primary auditory cortex (AI) silent synapses; test: PTZ-ELS auditory cortex critical period plasticity; format: in vivo; settings: PTZ P9-11; 1 dose following seizure induction each day
[10] = system: hypoxic seizure (HS) model; settings: post-seizure in vivo treatment; previously shown (6, 12); cited from earlier work
[11] = system: hippocampal CA1 AMPAR function, silent synapses, LTP; test: Hippocampal slice electrophysiology after P10 hypoxic seizures, post-seizure treatment; format: in vivo, rat
Experimental: FIG. 23 ELS induce altered hippocampal CA1 AMPAR function, silent synapses, and synaptic plasticity. Hippocampal brains slices removed at 48-72 h after P10 hypoxic seizures (HS) cause (A) enhanced AMPAR-mediated sEPSCs, (B) inwardly rectifying AMPAR eEPSCs, and (C) a precocious loss of silent synapses indicated by both decreased failure rates and silent synapse fraction. These changes yield attenuated synaptic plasticity both in early-life and as adults: (D) reduced eEPSC amplitude in post-HS 48-72 hrs from whole-cell LTP pairing protocol; (E,F) decreased potentiation from extracellular LTP recordings.

tdTom+ cells = test: tdTom+ cell labelling after PTZ seizures at P9-11 in FosTRAP mice; format: in vivo, mouse; settings: NBQX 1 hr post PTZ stage 5 seizures; preliminary cohort n=3/group
Experimental: Seizures will be induced as described above. For the KA model, beginning 1 hour after KA seizure, mice will receive doses of either NBQX (20 mg/kg i.p.), […] IEM 1460 (10 mg/kg i.p.), or saline every 12 hrs×4 doses as per prior protocols with ELS. For the PTZ model, we will follow our prior protocol, and deliver the NBQX (20 mg/kg i.p.), IEM 1460 (10 mg/kg i.p.) or saline at 1 hr post seizure on P9, P10, and […] (FIG. 33). Mice will be euthanized at P15, P30, or P60. Two sets of groups will be prepared (n=12/group): the first for perfusion and subsequent IHC to determine whether treatment decreases the number of tdTom+ cells. Confocal imaging of at least 2 fields/section and 3 sections/mouse in defined areas of hippocampal CA subfields and dentate gyrus (hippocampus: Bregma −1.46 to −2.70 mm (interaural 2.34 mm-1.1 mm) or primary auditory cortex (Bregma −2.18 mm to −3.64 mm (interaural 1.5 mm to 0.16 mm) will be used. MAP2, Iba-1, GFAP, and GAD67 will be used to confirm cell identity. Cell counts will be performed using ImageJ software and group differences analyzed by 2-way ANOVA/Bonferroni correction. Multivariate linear and logistic regression will be used to evaluate effects of age, gender, treatment groups and seizure severity in ELS. […]

[12] = KA 100 μM, in the presence of APV, NBQX, NASPM 150 μM, nimodipine 5 μM
[13] = KA 100 μM, 100 μM D-APV alone, vs. KA, NaOH+DMSO treated controls
[14] = KA-induced, 5 μM KN93, KN92 5 μM, EGTA 1 mM
[15] = KA+APV plus NBQX 50 μM or NASPM 150 μM, vs. KA+APV condition (100±3%)

Structure (SMILES): CC(=O)OCOC(=O)CN(CCOCCOCCN(CC(=O)OCOC(C)=O)CC(=O)OCOC(C)=O)CC(=O)OCOC(C)=O [EGTA-AM]
- Phosphorylation of MeCP2 S421 ([1]; 100 μM EGTA-AM, p=0.0057): reduced
- Phosphorylation of MeCP2 S421 ([2]; 100 μM EGTA-AM, p=0.0001): reduced

Structure (SMILES): NCCCNCCCCNCCCNC(=O)Cc1cccc2ccccc12 [NASPM, 1-Napthylacetyl Spermine]
- MeCP2 S421 phosphorylation [1, 12]: 30±9%
- KA-induced CaMKII phosphorylation ([3]; Ctx, in the presence of D-APV): 25±5%
- KA-induced CaMKII phosphorylation ([3]; H, in the presence of D-APV): 28±7%
- KCl-mediated MeCP2 phosphorylation ([4]; H, in the presence of D-APV): 11±6%
- KCl-mediated MeCP2 phosphorylation ([5]; Ctx, in the presence of D-APV): 32±13%
- MeCP2 S421 phosphorylation [2, 12]: 12±2%

Structure (SMILES): COCCOC(=O)C1=C(C)NC(C)=C(C(=O)OC(C)C)C1c1cccc([N+](=O)[O-])c1 (centres unmarked) [nimodipine]
- MeCP2 S421 phosphorylation [1, 12]: 21±6%
- KA-induced CaMKII phosphorylation ([3]; Ctx, in the presence of D-APV): 23±9%
- KA-induced CaMKII phosphorylation ([3]; H, in the presence of D-APV): 33±6%
- KCl-mediated MeCP2 phosphorylation ([4]; H, in the presence of D-APV): 0±1%
- MeCP2 S421 phosphorylation 3 hrs post-HS [6]: 103±9%
- KCl-mediated MeCP2 phosphorylation ([5]; Ctx, in the presence of D-APV): 10±6%
- MeCP2 S421 phosphorylation [2, 12]: 4±1%

Structure (SMILES): N[C@H](CCCP(=O)(O)O)C(=O)O [D-APV]
- MeCP2 S421 phosphorylation [1, 13]: 89±13%
- KA-induced CaMKII phosphorylation ([3]; Ctx, pre-treatment with D-APV alone): 81±11%
- KA-induced CaMKII phosphorylation ([3]; H, pre-treatment with D-APV alone): 86±9%
- KCl-mediated MeCP2 phosphorylation ([4]; hippocampal neurons, 10 DIV, D-APV alone): 73±21%
- KA-induced Ca2+ influx, normalized mean peak ratio ([7]; KA 30 μM, D-APV 100 μM, normalized to KA only (100±3%)): 73±3%
- KA-induced Ca2+ influx, normalized mean peak ratio ([8]; KA 30 μM, D-APV 100 μM, normalized to KA only (100±2%)): 74±3%
- KCl-mediated MeCP2 phosphorylation ([5]; cortical neurons, 10 DIV, D-APV alone): 87±21%
- MeCP2 S421 phosphorylation [2, 13]: 76±13%

Structure (SMILES): COc1ccc(S(=O)(=O)N(CCO)c2ccccc2CN(C)C/C=C/c2ccc(Cl)cc2)cc1 [KN93]
- MeCP2 S421 phosphorylation [1, 14]: 3±1%
- MeCP2 S421 phosphorylation [2, 14]: 10±3%

Structure (SMILES): Br.C[N+](C)(C)CCCCCNCC12CC3CC(CC(C3)C1)C2.[Br-] [IEM-1460]
- Activity-dependent MeCP2 phosphorylation in cultured neurons in vitro ([1]; p<0.0361, stimulus and concentration not stated): reduced
- Effect in PTZ-induced seizures (PTZ-induced seizures): anti-seizure effects
- Seizure-induced CaMKII phosphorylation in vivo (CaMKII phosphorylation): prevented
- MeCP2 S421 phosphorylation 3 hrs post-HS [6]: 106±11%
- Baseline MeCP2 phosphorylation in control rats [6]: did not affect
- Seizure behavior latency (CDKL5 R59X mouse): rescued
- Autistic like impairment in social behavior / social deficits (CDKL5 R59X mouse; acute in vivo treatment): rescued; also recorded: improves
- Spatial and temporal working memory in Y maze (% spontaneous alternating behavior) (CDKL5 R59X mouse; acute in vivo treatment): rescued; also recorded: improves
- Enhanced AMPAR currents (GluA2-lacking AMPAR): decreased; also recorded: attenuated
- Activity-dependent MeCP2 phosphorylation in cultured neurons in vitro ([2]; p<0.0049, stimulus and concentration not stated): reduced

Structure (SMILES): NS(=O)(=O)c1cccc2c1c([N+](=O)[O-])cc1nc(O)c(O)nc12 [NBQX]
- MeCP2 S421 phosphorylation [1, 12]: 3±5%
- KA-induced CaMKII phosphorylation ([3]; Ctx, in the presence of D-APV): 18±4%
- KA-induced CaMKII phosphorylation ([3]; H, in the presence of D-APV): 21±3%
- Subsequent A1 plasticity [9]: permits
- Synapse unsilencing [9]: prevents
- KCl-mediated MeCP2 phosphorylation ([4]; H, in the presence of D-APV): 21±6%
- KCl-induced phosphorylation of MeCP2 S421 ([4]; hippocampus, NBQX alone, p=0.0003): reversed
- Remaining NMDAR-insensitive Ca2+ influx [7, 15]: 31±2%
- Seizure-induced CaMKII phosphorylation in vivo (CaMKII phosphorylation): prevented
- Remaining NMDAR-insensitive Ca2+ influx [8, 15]: 3±2%
- MeCP2 S421 phosphorylation 3 hrs post-HS [6]: 81±8%
- Baseline MeCP2 phosphorylation in control rats [6]: did not affect
- Later-life seizures, altered synaptic plasticity, and autistic-like social deficits [10]: prevents
- KCl-mediated MeCP2 phosphorylation ([5]; Ctx, in the presence of D-APV): 35±5%
- KCl-induced phosphorylation of MeCP2 S421 ([5]; cortex, NBQX alone, p=0.0069): reversed
- Impaired LTP ([11]; 48-72 hr post HS and as P60 adults): protects
- Enhanced AMPAR function following ELS ([11]; post-seizure treatment): attenuates
- Premature silent synapse loss ([11]; post-seizure treatment): reverses
- Number of tdTom+ cells (tdTom+ cells): decrease; also recorded: reduction
- MeCP2 S421 phosphorylation [2, 12]: 0±0.3%

Structure (SMILES): COc1ccc(S(=O)(=O)Nc2ccccc2CN(C)C/C=C/c2ccc(Cl)cc2)cc1 [KN92]
- MeCP2 S421 phosphorylation [1, 14]: 97±3%
- MeCP2 S421 phosphorylation [2, 14]: 99±3%

Structure (SMILES): O=C(O)CN(CCOCCOCCN(CC(=O)O)CC(=O)O)CC(=O)O [EGTA]
- MeCP2 S421 phosphorylation [1, 14]: 66±7%
- MeCP2 S421 phosphorylation [2, 14]: 72±7%
